Experimental findings from patent US6172091A, “1,2-Disubstituted cyclopropanes” (Ortho-McNeil Pharmaceutical, Inc., priority 1999, dated 2001) are described below.

pEC50: −log10 of the molar value.

The target of experiment [1] is T1, calcium sensing receptor as found in the human parathyroid gland (Homo sapiens, UniProt P41180).
T1 construct: expressed in transfected cells; host or cells: HEK 293
T1 sequence (P41180 20-1078): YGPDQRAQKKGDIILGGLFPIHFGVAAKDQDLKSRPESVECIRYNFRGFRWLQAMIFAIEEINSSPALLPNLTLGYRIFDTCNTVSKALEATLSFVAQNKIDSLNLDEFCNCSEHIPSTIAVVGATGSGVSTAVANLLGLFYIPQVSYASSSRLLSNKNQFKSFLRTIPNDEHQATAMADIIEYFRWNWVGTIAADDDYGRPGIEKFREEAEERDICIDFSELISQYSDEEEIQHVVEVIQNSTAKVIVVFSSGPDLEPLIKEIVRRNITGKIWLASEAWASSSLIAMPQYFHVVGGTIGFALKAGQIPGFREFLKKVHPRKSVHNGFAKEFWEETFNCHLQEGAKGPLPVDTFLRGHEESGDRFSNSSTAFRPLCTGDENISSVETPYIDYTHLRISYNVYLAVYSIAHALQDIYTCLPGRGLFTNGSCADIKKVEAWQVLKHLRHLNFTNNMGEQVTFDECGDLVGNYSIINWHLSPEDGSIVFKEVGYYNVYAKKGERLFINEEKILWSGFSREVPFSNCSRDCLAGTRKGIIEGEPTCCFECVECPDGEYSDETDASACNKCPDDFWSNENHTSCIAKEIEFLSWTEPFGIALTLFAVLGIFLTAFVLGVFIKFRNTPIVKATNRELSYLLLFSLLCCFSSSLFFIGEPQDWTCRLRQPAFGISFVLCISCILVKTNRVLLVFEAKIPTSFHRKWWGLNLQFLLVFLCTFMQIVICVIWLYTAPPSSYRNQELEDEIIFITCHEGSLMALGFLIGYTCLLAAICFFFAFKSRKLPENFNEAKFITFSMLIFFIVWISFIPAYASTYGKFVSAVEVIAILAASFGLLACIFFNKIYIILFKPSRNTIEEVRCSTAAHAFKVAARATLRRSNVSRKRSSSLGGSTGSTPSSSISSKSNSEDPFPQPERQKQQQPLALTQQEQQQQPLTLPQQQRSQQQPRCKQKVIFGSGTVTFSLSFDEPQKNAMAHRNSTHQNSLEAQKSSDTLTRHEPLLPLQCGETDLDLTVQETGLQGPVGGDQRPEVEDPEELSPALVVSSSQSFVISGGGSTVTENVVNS
The experiment is described as follows: calcium mobilization fluorescence (FLIPR) assay, agonist mode. The class given is cell-based. As to conditions: transfected HEK 293 cells; 1 mM calcium standard; Tables 2-7; read-out: In Vitro: CS50, where potency is at 50% of the calcium standard potency. As to the method:
(§1) In vitro potency is measured via calcium mobilization in a fluorescence assay using HEK 293 cells transfected to express the same calcium sensing receptor as found in the human parathyroid gland. In this assay calcium-sensing receptor agonists and antagonists are detected. The assay is conducted in a 96-well plate format with the use of FLIPR (fluorescent imaging plate reader; Molecular Devices, Sunnyvale, Calif.). The HEK 293 cell media is replaced with the fluorescence dye FLUO-3AM and Pluronic detergent in FLIPR assay buffer. Cells are incubated 60 min (in the dark, at room temperature), then washed with assay buffer and placed in FLIPR. Images are collected by FLIPR in the absence of test compound, then in the presence of test compound (at 25 µM) and then after addition of a calcium challenge (at 1 mM). In the agonist assay the difference between maximum and minimum fluorescence values is measured following test compound addition. Hits have a change in fluorescence greater than or equal to 50% of that seen with a 1 mM calcium standard. In the antagonist assay the difference between maximum and minimum fluorescence values is measured following the calcium challenge addition. When compared to challenge in the absence of test compound, hits reduce fluorescence by at least 50%. In vivo activity is measured via parathyroid hormone (PTH) supression by test compounds in a rat model. Compound is administered orally using 0.5% Tween 80 in distilled water as vehicle, with a volume of approximately 10 mL/kg body weight. Blood samples are taken at 15 minutes (and 4 h if required) post oral dosing. Serum PTH levels are determined with an immunoradiometric assay.
(§2) Not all compounds were tested in each of the screens. […] Each entry represents a mixture of cis and trans cyclopropanes (R,S; S,R; R,R; S,S) with R absolute configuration when R^3=CH3. Table 2 lists compounds that are trans at the cyclopropane (R,R; S,S) with R absolute configuration at the benzylamine position, or without stereochemistry at the benzylamine. Table 3 lists compounds with R,R absolute stereochemistry at the cyclopropane and a mixture of stereochemistry at the benzylamine position. 20. In vitro data in Table 1 is percent activation of the calcium-sensing receptor versus baseline. In vitro data in Tables 2-7 is expressed as a CS50, where potency is at 50% of the calcium standard potency, and the unit is μM. In vivo data represents % blood serum PTH vs. vehicle at 30 mg/kg test compound, levels measured after 15 minutes.

Experiment [2] concerns parathyroid hormone (PTH). As to the kind of experiment: parathyroid hormone (PTH) suppression in a rat model. The class given is in vivo. The settings on record: 30 mg/kg test compound, levels measured after 15 minutes; for In Vivo: % blood serum PTH vs. vehicle: oral, 30 mg/kg; for change in vivo at 30 mg/kg: Rattus norvegicus, po, 0.25 h, read-out: In Vivo: % blood serum PTH vs. vehicle. As to the method:
as §1, §2

With `COc1cccc([C@@H](C)NC[C@@H]2C[C@H]2c2cccc(F)c2)c1` (mixture of isomers) [Compound 20, N-(trans-2-(3-fluorophenyl)cyclopropanylmethyl)-1-(R)-(3-methoxyphenyl)ethylamine], the pEC50 in experiment [1] was 4.96. Also, the “In Vivo: % blood serum PTH vs. vehicle” value in experiment [2] is -95.2%.
Regarding `c1ccc([C@@H]2C[C@H]2CNCc2ccccn2)cc1` (relative stereo) [Compound 28], the pEC50 in experiment [1] is below 4.60. Also, the change in vivo at 30 mg/kg in experiment [2] turned out to be 72%.
As to `c1ccc([C@@H]2C[C@H]2CNCc2cccnc2)cc1` (relative stereo) [Compound 29], in experiment [1], the pEC50 is below 4.60. Also, the change in vivo at 30 mg/kg in experiment [2] worked out at 87.8%.
On the same counts, the results for `c1ccc([C@@H]2C[C@H]2CNCc2ccncc2)cc1` (relative stereo) [Compound 30] are below 4.60 and 70.1%.
For `COc1cccc(CNC[C@@H]2C[C@H]2c2ccccc2)c1` (relative stereo) [Compound 31], the pEC50 in experiment [1] is below 4.60. Besides, the change in vivo at 30 mg/kg in experiment [2] was -26.5%.
As to `COc1cccc([C@@H](C)NCC2CC2c2ccccc2F)c1` (single isomer, unassigned) [Compound 18], the pEC50 in experiment [1] is 4.95. Moreover, the “In Vivo: % blood serum PTH vs. vehicle” value in experiment [2] is -83.9%.
With `COc1cccc([C@@H](C)NCC2CC2c2ccccc2F)c1` (single isomer, unassigned) [Compound 19], the pEC50 in experiment [1] was 5.02. Besides, in experiment [2], the “In Vivo: % blood serum PTH vs. vehicle” value is -89.2%.
`COc1cccc([C@@H](C)NCC2CC2c2cc(C)ccc2C)c1` (stereo partly shown) [Compound 1]: the “In Vivo: % blood serum PTH vs. vehicle” value in experiment [2] was “+31.4%”.
Take `COc1cccc([C@@H](C)NCC2CC2c2ccccc2)c1` (stereo partly shown) [Compound 3]: in experiment [2], the change in vivo at 30 mg/kg was -62.1%.
`COc1cccc([C@@H](C)NCC2CC2c2ccccc2Cl)c1` (stereo partly shown) [Compound 4]: the change in vivo at 30 mg/kg in experiment [2] was -11.9%.
Same read-out and setting: under `COc1cccc([C@@H](C)NCC2CC2c2ccc(Cl)cc2)c1` (stereo partly shown) [Compound 6] stands -9.3%.
Turning to `COc1cccc([C@@H](C)NCC2CC2c2ccccn2)c1` (stereo partly shown) [Compound 9], in experiment [1], the pEC50 is 5.19.
For the molecule `COc1cccc([C@@H](C)NCC2CC2c2cccnc2)c1` (stereo partly shown) [Compound 10], the pEC50 in experiment [1] is 4.43.
In the case of `COc1cccc([C@@H](C)NCC2CC2c2ccncc2)c1` (stereo partly shown) [Compound 11], in experiment [1], the pEC50 is below 4.60.
On to `COc1cccc([C@@H](C)NCC2CC2c2ccccc2C)c1` (stereo partly shown) [Compound 12], for which the pEC50 in experiment [1] was 5.06. In addition, the change in vivo at 30 mg/kg in experiment [2] is -95.8%.
On the same counts, the results for `COc1cccc([C@@H](C)NCC2CC2c2cccc(C)c2)c1` (stereo partly shown) [Compound 13] are 5.02 and -98.2%.
Regarding `COc1cccc([C@@H](C)NCC2CC2c2ccccc2C(F)(F)F)c1` (stereo partly shown) [Compound 14], in experiment [1], the pEC50 was 4.28. Moreover, the change in vivo at 30 mg/kg in experiment [2] was -34.7%.
On to `COc1cccc([C@@H](C)NCC2CC2c2cccc(C(F)(F)F)c2)c1` (stereo partly shown) [Compound 15], for which the pEC50 in experiment [1] is 4.87. Also, the change in vivo at 30 mg/kg in experiment [2] is 4.2%.
On the same counts, the results for `COc1cccc([C@@H](C)NCC2CC2c2ccc(C(F)(F)F)cc2)c1` (stereo partly shown) [Compound 16] are below 4.60 and -14.4%.
Consider `COc1cccc([C@@H](C)NCC2CC2c2ccccc2F)c1` (stereo partly shown) [Compound 17], for which the pEC50 in experiment [1] was 5.30. The change in vivo at 30 mg/kg in experiment [2] is -94.8%.
`COc1cccc([C@@H](C)NC[C@H]2C[C@@H]2c2cccc(F)c2)c1` [Compound 21]: the pEC50 in experiment [1] is 4.96.
For the molecule `COc1cccc([C@@H](C)NC[C@@H]2C[C@H]2c2cccc(F)c2)c1` [Compound 22], the pEC50 in experiment [1] is 5.03. The “In Vivo: % blood serum PTH vs. vehicle” value in experiment [2] was -93.4%.
For `COc1cccc([C@@H](C)NCC2CC2c2ccc(F)cc2)c1` (stereo partly shown) [Compound 23], the pEC50 in experiment [1] was 4.87. For the same molecule, the change in vivo at 30 mg/kg in experiment [2] is -55%.
On the same counts, the results for `COc1cccc([C@@H](C)NCC2CC2c2c(F)cccc2F)c1` (stereo partly shown) [Compound 24] are 4.92 and -85.4%.
Take `COc1cccc([C@@H](C)NCC2CC2c2cccs2)c1` (stereo partly shown) [Compound 25]: in experiment [1], the pEC50 was 5.15. Also, the change in vivo at 30 mg/kg in experiment [2] is -89%.
As for `COc1cccc([C@@H](C)NCC2CC2c2ccsc2)c1` (stereo partly shown) [Compound 26], the pEC50 in experiment [1] was 5.47.
For `COc1cccc([C@@H](C)NCC2CC2c2cccn2C)c1` (stereo partly shown) [Compound 27], in experiment [1], the pEC50 was 5.11.
`COc1cccc([C@@H](C)NCC2CC2c2cc(C)ccc2C)c1` (stereo partly shown) [Compound 32]: the pEC50 in experiment [1] is 4.91. Also, in experiment [2], the “In Vivo: % blood serum PTH vs. vehicle” value is -13.5%.
For `COc1cccc([C@@H](C)NCC2CC2c2ccc([N+](=O)[O-])cc2[N+](=O)[O-])c1` (stereo partly shown) [Compound 34], the pEC50 in experiment [1] is below 4.60.
Take `COc1cccc([C@@H](C)NCC2CC2c2ccc(Cl)s2)c1` (stereo partly shown) [Compound 35]: in experiment [2], the change in vivo at 30 mg/kg was -15.4%.
In the case of `COc1cccc([C@@H](C)NCC2CC2c2ccc(C)s2)c1` (stereo partly shown) [Compound 36], in experiment [2], the change in vivo at 30 mg/kg is -34.2%.
`COc1cccc([C@@H](C)NCC2CC2c2cc(Br)cs2)c1` (stereo partly shown) [Compound 37]: the change in vivo at 30 mg/kg in experiment [2] was -24.8%.
Same read-out and setting: under `COc1cccc([C@@H](C)NCC2CC2c2sccc2C)c1` (stereo partly shown) [Compound 38] stands -51%; under `CC(NC[C@@H]1C[C@H]1c1ccccc1)c1cccc(OC(F)(F)F)c1` (stereo partly shown) [Compound 39], 0%.
In the case of `COc1cccc([C@@H](C)N(C[C@@H]2C[C@H]2c2ccccc2)C(=O)C(C)(C)C)c1` [Compound 55], the pEC50 in experiment [1] was below 4.60.
For `COc1cccc([C@@H](C)NC[C@H]2C[C@@H]2c2cccc(F)c2)c1` [Compound 71], the change in vivo at 30 mg/kg in experiment [2] was -78.7%.
In the case of `COc1cccc([C@@H](C)NC[C@@H]2C[C@H]2c2cccc(F)c2)c1` [Compound 72], the “In Vivo: % blood serum PTH vs. vehicle” value in experiment [2] was -93.4%.
For the molecule `COc1cccc([C@@H](C)NCC2CC2c2cccc(F)c2)c1` (stereo partly shown) [Compound 73], the “In Vivo: % blood serum PTH vs. vehicle” value in experiment [2] is given as -52.5%.
Take `COc1cccc([C@@H](C)NCC2CC2c2cccc(F)c2)c1` (stereo partly shown) [Compound 74]: the “In Vivo: % blood serum PTH vs. vehicle” value in experiment [2] is recorded as -2.6%.
For the molecule `COc1cccc([C@H](C)NC[C@H]2C[C@@H]2c2cccc(F)c2)c1` [Compound 75], the change in vivo at 30 mg/kg in experiment [2] is -0.9%.
The same measure, in the same setting: under `COc1cccc([C@H](C)NC[C@@H]2C[C@H]2c2cccc(F)c2)c1` [Compound 76] stands 16.8%.
As for `COc1cccc([C@H](C)NCC2CC2c2cccc(F)c2)c1` (stereo partly shown) [Compound 77], in experiment [2], the “In Vivo: % blood serum PTH vs. vehicle” value was “+2.1%”.
Regarding `COc1cccc([C@H](C)NCC2CC2c2cccc(F)c2)c1` (stereo partly shown) [Compound 78], the “In Vivo: % blood serum PTH vs. vehicle” value in experiment [2] was “+21.4%”.
